Each structure is given as a SMILES string. Bounds are passed on as bounds.

`Cc1nc2ccc(C(=O)NS(=O)(=O)c3ccccc3)nc2n1Cc1ccc(C(=O)O)cc1Cl`: the melting point (commonly the temperature, or range, at which the solid turns liquid) was in the range of 155 to 160 °C.

`COc1cc2c(cc1O)CC(C)(C)N(Cc1cc(OC)c(OC)c(OC)c1)C2` displayed a melting point of 143 to 147 °C.

As to `Cc1ccc(S(=O)(=O)n2ccnc2C(O)(c2ccc(F)cc2)c2ccc(F)cc2)cc1`, the melting point is 149 to 151 °C.

Regarding `CC(=O)CC(O)c1ccc(-c2ccc(N3C[C@H](Cn4ccnn4)OC3=O)cc2F)cn1` (some centres not stated), the melting point was 130 to 135 °C.

The compound `CC1(C)OC(=S)N(c2cc(C#N)ccc2F)c2ccccc21` registered a melting point of 250 to 251 °C.

Compound `Cc1cccc(C(=O)NC2CN3CCC2CC3)c1C` (racemic) showed a melting point of 160 to 161 °C.

For `C=CC(=O)OCCCCCCC(CCCCCCOC(=O)C=C)C(=O)OCCCCCCCCCCCCCCCCOc1ccc(-c2cccc(F)c2F)cc1`, the melting point was 33.8 to 35.5 °C.

The compound `Nc1ccc(C=CC(=O)N2CCc3c([nH]c4ccccc34)C2c2ccc3c(c2)CCO3)cc1` (configuration not stated) came in with a melting point of 183 °C.

Compound `O=C1c2cccc(NC(=S)Nc3ncccn3)c2C2CCCCN12` (configuration not stated) displayed a melting point of 212 °C.

For the compound `O=C(OCc1cccc(Cl)c1)c1ncn2c1[C@@H]1CCCN1C(=O)c1c(Cl)cccc1-2`, the melting point was 114 to 116 °C.

The compound `CCCC(C(=O)OCC)c1ccc(N2Cc3ccccc3C2=N)cc1` (configuration not stated) returned a melting point of 158 to 160 °C.

In the case of `Cc1ccc(NC(=O)C(CS)Cc2ccccc2)c(C)c1C(=O)O` (configuration not stated), the melting point fell in the range of 180 to 181 °C.

As for `Cc1c(SC(=S)N(C)C)sn(-c2ccccc2)c1=O`, the melting point lay in the range of 158 to 160 °C.

In turn, `COc1cc(C(=O)OC2CC3C(=O)NC4(C(=O)NS(=O)(=O)C5CC5)CC4C=CCCCCCC(NC(=O)OC(C)(C)C)C(=O)N3C2)n(OC)n1` (configuration not stated) came in with a melting point of 149 to 151 °C.

In turn, `CCCCCC(=O)SC1CCN(C(C(=O)C2CC2)c2ccccc2F)CC1` (configuration not stated) returned a melting point of 64 to 65 °C.

Turning to `CCC(CNC(=O)c1ccc(C(F)(F)F)c(NC(C)=O)c1)OC(C)=O` (configuration not stated), the melting point stood at 121 °C.

In the case of `CSC(CC(=O)c1cc(Cl)c(C)c(Cl)c1)C(=O)O` (configuration not stated), the melting point lay in the range of 158 to 160 °C.

For the compound `Cc1c(N)c(C)c2c(c1CCCO)OCC2c1ccc(C(C)C)cc1` (configuration not stated), the melting point fell in the range of 110 to 111 °C.

`COc1ccc(-c2nnc(C)nc2-c2ccc(OC)cc2)cc1` gave a melting point of 109 to 113 °C.

`Clc1nc(Cl)c2c(n1)CCCS2` returned a melting point of 110 °C.

`Cc1cncc(-c2nc(C(F)(F)F)cn2-c2ccc(S(N)(=O)=O)cc2)c1` registered a melting point of 242 to 243 °C.

Consider `COc1cc2c(cc(C(=O)OCc3ccccc3)n2CCC#N)c(C)c1C`, for which the melting point came to 140 °C.

For the compound `Cc1cn2cccc(C=O)c2n1`, the melting point is 123 to 125 °C.

With `Nc1c([N+](=O)[O-])cc(F)c(Cl)c1Br`, the melting point is 146 to 147 °C.

Compound `Cc1ccc(C2CC(=O)CC(c3ccc(C)cc3)N2C)cc1` (configuration not stated) came in with a melting point of 105 to 107 °C.

In turn, `CN(C)CCCCCCCCCCOc1ccc(C(=O)c2ccccc2)cc1` had a melting point of 33 to 35 °C.

On to `O=c1ncc(C(F)(F)F)cn1COc1ccc(Cl)cc1`, for which the melting point is 98 °C.

In turn, `COc1cc(C=CC(=O)Nc2c(OC)nc3c(C)cc(C)cc3c2-c2ccccc2Cl)cc(OC)c1OC(C)=O` returned a melting point of 230 to 231 °C.

Compound `CCCNC(=O)N1C2=NC(C)(C)N(C)C(=O)N2c2ccccc21` registered a melting point of 85 to 87 °C.

The compound `CN(C)C=C1C(=O)OC(=O)c2ccccc21` came in with a melting point of 137 to 140 °C.

`Cn1c(C#N)ccc1-c1ccc2c(c1)C(C)(C)OC(=S)N2`: the melting point was 228 to 229 °C.

With `CCOC(=O)c1cn(C2CC2)c2cc(C3CCN(C(C)=O)CC3)c(F)cc2c1=O`, the melting point was in the range of 195 to 201 °C.

As for `Cc1nc(NC(=O)c2cccc3ccccc23)sc1C(=O)NCc1ccccc1`, the melting point was in the range of 99 to 101 °C.

In turn, `CCOC(=O)COc1c(Cl)c(O)c2c(c1Cl)OC1(CCCCC1)CC2=O` gave a melting point of 134 to 135 °C.

For `CC1=C(C(=O)O)CCc2ccccc21`, the melting point amounted to 127 °C.

In turn, `CCC(OC(C)=O)c1nc2c(C(F)(F)F)cccc2c(O)c1C(=O)Nc1nccs1` (configuration not stated) registered a melting point of 245 °C.

In turn, `Cc1coc(C)c1N(C)c1cc(Br)cc2c1nc(C)n2C` showed a melting point of 207 to 208 °C.

On to `COc1cccc(Oc2c(Cl)nc(-c3cccs3)nc2NS(=O)(=O)c2ccc(C(C)(C)C)cc2)c1`, for which the melting point was 206 to 207 °C.

As for `CN(C)c1ccc(NC(=O)C(CS)Cc2ccccc2)cc1C(=O)O` (configuration not stated), the melting point lay within 85 to 89 °C.

`O=C(Nc1ccc(N2CCOCC2)cc1)Nc1ccc(C(F)(F)F)cc1` had a melting point of 228 to 232 °C.

Take `CCN(Cc1csc(C2CCCC2)n1)C(=O)N[C@H](C(=O)N[C@@H](Cc1ccccc1)C[C@H](O)[C@H](Cc1ccccc1)NC(=O)OCc1cncs1)C(C)C`: the melting point was in the range of 67 to 69 °C.

For the compound `N#Cc1ccc(-c2ccc(Cl)c(OC3SCC(O)C(O)C3O)c2)cn1` (configuration not stated), the melting point turned out to be 192 °C.

In turn, `CS(=O)(=O)c1cc(Cl)ccc1C(=O)c1cnoc1C1CC1` displayed a melting point of 183 to 185 °C.

`COP1(=O)CC(O)C(Cl)C1` (configuration not stated) returned a melting point of 82 °C.

`CCOC(=O)C1(Cc2ccccc2)CC(=O)N(c2ccnc(NC(=O)NCc3ccccn3)c2)C1` (configuration not stated): the melting point is 158 to 160 °C.

As to `COc1cc(CC(=O)O)cc2c1NC(C(F)(F)F)CC2` (configuration not stated), the melting point fell in the range of 108 to 109 °C.

Turning to `COc1ccc(Cn2c(=S)[nH]c(=S)c3[nH]cnc32)cc1OC1CCCC1`, the melting point was 215 to 218 °C.

Regarding `CN(C)CCCOc1cccc(N(C(=O)c2ccccc2)c2ccccc2)c1`, the melting point was 77 to 81 °C.

For the compound `Clc1ccccc1-c1cc(-c2ccccc2)c(-c2ccccc2)s1`, the melting point fell in the range of 103 to 107 °C.

`COc1ccc(N(Cc2ccc(C#N)cc2)n2ccnc2)cc1` yielded a melting point of 207 °C.

In the case of `CC(=O)NC1CCN(c2cccc(Br)n2)CC1`, the melting point was 158 to 160 °C.

With `COc1ccc(C2CCCN(C)C2)c2c1NC(=O)C2` (configuration not stated), the melting point was 170 °C.

Consider `CC(C)Cn1cnc2c(N)nc3ccc(OCc4ccccc4)cc3c21`, for which the melting point lay in the range of 214 to 216 °C.

In turn, `CCCCCCCCCCC1SCCCN1C(=S)Nc1cccc(Cl)c1` (configuration not stated) had a melting point of 63 to 65 °C.

`COc1cc2nc(N)nc(-c3ccccc3I)c2cc1OC` yielded a melting point of 225 to 230 °C.

`Fc1ccc2[nH]c3c4ccccc4nc-3cc2c1` displayed a melting point above 246 °C.

`N#CC=Cc1ccc(NC(=O)C=CC=C(Nc2cc(Cl)cc(Cl)c2I)C(=O)OCc2ccccc2)cc1` showed a melting point of 132 to 134 °C.

Take `O=C(CCCCCCCCC(=O)CC(=O)c1ccccc1)CC(=O)c1ccccc1`: the melting point fell in the range of 108 to 111 °C.

For the compound `CCOCCOc1ccc(CCNC(=O)c2cnc3ccccc3c2)cc1S(=O)(=O)NC(=S)NC`, the melting point was 88 to 91 °C.

Turning to `CN(CCNc1ccc([N+](=O)[O-])cc1)S(C)(=O)=O`, the melting point worked out at 109 °C.

In turn, `CCOC(=O)c1c(C)nn(-c2ccc(F)cc2)c1C` displayed a melting point of 59 to 60 °C.

Compound `COC(=O)c1ccc2nc3n(c(=O)c2c1)CCC3=Cc1ccccc1C` returned a melting point of 181 to 183 °C.

Consider `CC(C)Oc1ccc(CCCOc2nn(C)cc2CC(=O)O)c(OCc2ccc(Cl)cc2Cl)c1`, for which the melting point is 102 to 103 °C.

For the compound `CC(C)(NS(=O)(=O)c1ccc2c(Cl)cnc(Cl)c2c1)C(N)=O`, the melting point was in the range of 220 to 222 °C.

In turn, `Oc1ccccc1-c1cc(-c2ccc(F)c(F)c2)cc(-c2ccco2)n1` returned a melting point of 147 to 148 °C.

As to `NC(=NO)c1ccc(Cn2ccc(OCc3ccccc3)c(Br)c2=O)cc1`, the melting point is 210 to 212 °C.

Regarding `C#CCN(C(CCn1c(=O)[nH]c2ccccc2c1=O)C(=O)O)S(=O)(=O)c1ccc(Oc2ccccc2)cc1` (configuration not stated), the melting point is 194 to 195 °C.

`Cc1cc(C(O)(C(F)(F)F)C(F)(F)F)ccc1O` gave a melting point of 89.5 to 90.5 °C.

As for `CS(=O)(=O)c1ccc(C2=C(Br)C(=O)C3(CCCCC3)O2)cc1`, the melting point was in the range of 163 to 164 °C.

In turn, `Cc1nc2cc3c(cc2o1)C1(CO3)C(=O)N(CC2CCCO2)c2ccccc21` (configuration not stated) had a melting point of 188 to 190 °C.

In turn, `COC(=O)COc1cccc2c1CCC(Cc1coc(C(c3ccccc3)c3ccccc3)n1)C2` (configuration not stated) displayed a melting point of 91 to 93 °C.

With `O=c1c(O)nc2cccnc2n1-c1ccc(Cl)cc1`, the melting point was above 300 °C.

Turning to `COC(=O)c1ccc2ccc(C#N)cc2c1`, the melting point is 136 °C.

`CC(C)(N)CCOc1ccc(Cl)nn1`: the melting point is 63.5 to 65 °C.

In the case of `CN(C)C(=O)Oc1ccc2c(NCCN3CCOCC3)noc2c1`, the melting point was 150 °C.

With `COc1cc(O)ccc1[N+](=O)[O-]`, the melting point amounted to 142 °C.

For the compound `CCc1nc2c(cnn2CC)c(NC2CCOCC2)c1CNC(=O)c1cccc(C(=O)NCc2cc(Cl)cc(-c3cccc(C=O)c3)c2)c1`, the melting point lay within 123 to 127 °C.

In turn, `O=C(O)CCc1cc2cc(Cl)ccc2n1S(=O)(=O)c1cccc2cccnc12` returned a melting point of 215 to 222 °C.

`COc1ccc(-c2ccc(N)nn2)cc1OC1CCCC1` came in with a melting point of 207 °C.

For the compound `COc1cccc(-c2ncc(C(=O)N(C)Cc3cccc(O)c3)s2)c1F`, the melting point came to 140 °C.

Turning to `Cc1cc2c(cc1-c1ccc(C=CC(=O)O)s1)C(C)(C)CCC2(C)C`, the melting point lay in the range of 175 to 177 °C.

For `Cc1ccc(C(=O)Nc2c(NC(=O)CN3CCOCC3)ccc3c2C(=O)c2ccccc2C3=O)cc1`, the melting point was in the range of 225 to 226 °C.

Compound `CN(C)S(=O)(=O)c1cn(C)c2ccccc2c1=O` returned a melting point of 225 to 226 °C.

`COC(=O)c1c(C)nc(C)c(C(=O)OCC2CCCO2)c1-c1cccc(NC(C)=O)c1` (configuration not stated) displayed a melting point of 196 to 198 °C.

As to `O=C(COCCc1coc2c(O)cccc12)c1ccccc1`, the melting point fell in the range of 114 to 115 °C.

`COc1ccc(CN2CCC(c3cn(Cc4ccoc4)c4ccccc34)CC2)cc1C(=O)O`: the melting point lay in the range of 253 to 255 °C.

For `COC(=O)CCCc1cc2nc(Cl)ccc2n1S(=O)(=O)c1ccccc1`, the melting point was 85 to 90 °C.

The values are drawn from a melting point compilation (Tetko et al.; mined from patent text by program, amines drawn as free bases though some values may be those of a salt).
